Results from publication PMC11678425, “(-)-Syringaresinol Exerts an Antidepressant-like Activity in Mice by Noncompetitive Inhibition of the Serotonin Transporter” (Pharmaceuticals, 2024).

How the values were obtained:
hSERT S2 mutants = experiment: APP^+ uptake or ASP^+ binding, all S2 mutants compared with WT; assay type: cell-based, human; details: all S2 mutants tested
Procedure: (§1) HeLa cells were cultured in Dulbecco’s Modified Eagle’s Medium supplemented with 10% fetal bovine serum, 100 units/mL penicillin, and 100 μg/mL streptomycin at 37 °C in a humidified 5% CO2 incubator. Cells grown at ~70% confluence in a 6 cm culture dish were transfected with hSERT cDNA in pcDNA3.1 by lipofectamine 2000. Transfected cells were incubated for 12 h at 37 °C with 5% CO2 and then transferred into 96-well plates. After being grown for an additional 12–16 h, the cells were then assayed for APP^+ uptake or ASP^+ binding.
Measurement of transport or ligand binding activity of SERT was performed by using its fluorescent substrate (APP^+) or ligand (ASP^+), respectively. The cells transiently expressing WT or mutants of hSERT were applied for various treatments. […] APP^+ uptake was measured by adding 100 μL KRH buffer containing 2 μM APP^+ and incubating for 5 min at 22 °C. […] The extent of APP^+ accumulated in the cells was determined by fluorescence spectrometry with an Infinite 200 Pro microplate reader (Tecan, Männedorf, Switzerland).
ASP^+ binding to SERT expressed on the cell surface was measured with digitonin-permeabilized cells as described previously. […] After removing excess ASP^+ by 3× rapid washing, ASP^+ fluorescence retained in the cell membrane was determined by fluorescence spectrometry. […]

hSERT R564A = target: T1, hSERT R564A (Homo sapiens, UniProt P31645, R564A); experiment: ASP^+ binding, hSERT R564A; details: S2 site mutant, read-out: SYR IC50 for Binding
T1 construct: forward and reverse primers were used to amplify a full-length hSERT; expressed in transfected cells; host or cells: HeLa
T1 sequence (P31645 whole entry R564A): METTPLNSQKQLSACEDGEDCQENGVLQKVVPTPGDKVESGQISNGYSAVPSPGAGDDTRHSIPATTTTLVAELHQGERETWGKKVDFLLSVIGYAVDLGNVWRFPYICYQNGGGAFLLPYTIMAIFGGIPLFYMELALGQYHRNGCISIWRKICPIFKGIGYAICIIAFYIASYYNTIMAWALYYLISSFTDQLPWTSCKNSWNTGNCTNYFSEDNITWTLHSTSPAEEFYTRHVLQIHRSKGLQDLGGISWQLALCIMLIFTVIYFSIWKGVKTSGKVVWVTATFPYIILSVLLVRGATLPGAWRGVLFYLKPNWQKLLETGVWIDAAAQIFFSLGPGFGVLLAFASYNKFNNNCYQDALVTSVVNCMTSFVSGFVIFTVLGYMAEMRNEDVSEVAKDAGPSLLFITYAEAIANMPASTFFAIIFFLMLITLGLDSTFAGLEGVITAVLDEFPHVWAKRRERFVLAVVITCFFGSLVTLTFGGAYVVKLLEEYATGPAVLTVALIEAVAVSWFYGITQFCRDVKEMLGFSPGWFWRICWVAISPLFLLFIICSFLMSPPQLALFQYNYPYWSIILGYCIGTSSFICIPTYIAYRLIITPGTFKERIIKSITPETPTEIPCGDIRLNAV

hSERT G498T [1] = target: T2, hSERT G498T (Homo sapiens, UniProt P31645, G498T); experiment: APP^+ uptake, hSERT G498T; assay type: cell-based; details: S2 site mutant, read-out: SYR IC50 for Transport
T2 construct: forward and reverse primers were used to amplify a full-length hSERT; expressed in transfected cells; host or cells: HeLa cells, transient, pcDNA3.1
T2 sequence (P31645 whole entry G498T): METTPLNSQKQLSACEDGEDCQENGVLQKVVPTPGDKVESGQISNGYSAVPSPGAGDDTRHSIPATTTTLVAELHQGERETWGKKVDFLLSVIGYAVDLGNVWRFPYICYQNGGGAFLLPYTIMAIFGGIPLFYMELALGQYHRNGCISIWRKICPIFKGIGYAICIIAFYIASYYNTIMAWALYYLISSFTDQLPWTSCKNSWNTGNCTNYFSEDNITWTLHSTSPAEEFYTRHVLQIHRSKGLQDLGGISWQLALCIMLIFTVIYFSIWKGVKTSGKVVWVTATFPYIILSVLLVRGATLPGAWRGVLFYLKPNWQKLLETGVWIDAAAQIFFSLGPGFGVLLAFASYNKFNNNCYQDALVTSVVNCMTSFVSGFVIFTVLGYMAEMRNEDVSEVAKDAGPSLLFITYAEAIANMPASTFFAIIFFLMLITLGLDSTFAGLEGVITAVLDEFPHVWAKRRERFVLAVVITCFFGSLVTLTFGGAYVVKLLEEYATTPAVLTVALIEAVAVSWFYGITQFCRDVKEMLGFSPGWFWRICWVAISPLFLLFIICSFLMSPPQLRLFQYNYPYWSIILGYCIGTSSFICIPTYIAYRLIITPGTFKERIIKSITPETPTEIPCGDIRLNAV

hSERT S438T = target: T3, hSERT S438T (Homo sapiens, UniProt P31645, S438T); experiment: APP^+ uptake, hSERT S438T; assay type: cell-based; details: S1 site mutant, read-out: SYR IC50 for Transport
T3 construct: forward and reverse primers were used to amplify a full-length hSERT; expressed in transfected cells; host or cells: HeLa
T3 sequence (P31645 whole entry S438T): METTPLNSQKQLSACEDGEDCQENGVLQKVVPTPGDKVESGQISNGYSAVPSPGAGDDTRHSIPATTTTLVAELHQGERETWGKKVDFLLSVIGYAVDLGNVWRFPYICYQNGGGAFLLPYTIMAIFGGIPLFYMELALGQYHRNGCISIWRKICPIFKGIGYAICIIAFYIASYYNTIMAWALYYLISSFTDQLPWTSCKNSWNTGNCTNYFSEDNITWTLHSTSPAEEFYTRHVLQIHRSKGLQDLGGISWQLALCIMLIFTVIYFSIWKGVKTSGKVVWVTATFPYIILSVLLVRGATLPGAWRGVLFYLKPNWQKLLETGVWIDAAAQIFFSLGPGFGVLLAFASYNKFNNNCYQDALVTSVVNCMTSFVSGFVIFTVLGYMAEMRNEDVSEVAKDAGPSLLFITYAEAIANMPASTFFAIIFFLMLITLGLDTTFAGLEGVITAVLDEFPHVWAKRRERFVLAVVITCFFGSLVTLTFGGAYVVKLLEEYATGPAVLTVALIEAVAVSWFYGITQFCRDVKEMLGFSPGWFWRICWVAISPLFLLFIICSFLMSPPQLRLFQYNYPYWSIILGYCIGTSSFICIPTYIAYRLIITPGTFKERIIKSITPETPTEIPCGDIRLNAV
Procedure: as §1
(§2) Measurement of transport or ligand binding activity of SERT was performed by using its fluorescent substrate (APP^+) or ligand (ASP^+), respectively. The cells transiently expressing WT or mutants of hSERT were applied for various treatments. Briefly, the cells were washed twice with 100 μL KRH buffer containing 20 mM HEPES (Neofroxx, Einhausen, Germany), pH 7.4, 120 mM NaCl, 1.3 mM KCl, 2.2 mM CaCl2, 1.2 mM MgSO4, and 0.1% (w/v) glucose. APP^+ uptake was measured by adding 100 μL KRH buffer containing 2 μM APP^+ and incubating for 5 min at 22 °C. Excess APP^+ was then removed by 3× rapid washing with 100 μL KRH buffer each time. The extent of APP^+ accumulated in the cells was determined by fluorescence spectrometry with an Infinite 200 Pro microplate reader (Tecan, Männedorf, Switzerland). […]

hSERT Y95F = target: T4, hSERT Y95F (Homo sapiens, UniProt P31645, Y95F); experiment: APP^+ uptake, hSERT Y95F; assay type: cell-based; details: S1 site mutant, read-out: SYR IC50 for Transport
T4 construct: forward and reverse primers were used to amplify a full-length hSERT; expressed in transfected cells; host or cells: HeLa
T4 sequence (P31645 whole entry Y95F): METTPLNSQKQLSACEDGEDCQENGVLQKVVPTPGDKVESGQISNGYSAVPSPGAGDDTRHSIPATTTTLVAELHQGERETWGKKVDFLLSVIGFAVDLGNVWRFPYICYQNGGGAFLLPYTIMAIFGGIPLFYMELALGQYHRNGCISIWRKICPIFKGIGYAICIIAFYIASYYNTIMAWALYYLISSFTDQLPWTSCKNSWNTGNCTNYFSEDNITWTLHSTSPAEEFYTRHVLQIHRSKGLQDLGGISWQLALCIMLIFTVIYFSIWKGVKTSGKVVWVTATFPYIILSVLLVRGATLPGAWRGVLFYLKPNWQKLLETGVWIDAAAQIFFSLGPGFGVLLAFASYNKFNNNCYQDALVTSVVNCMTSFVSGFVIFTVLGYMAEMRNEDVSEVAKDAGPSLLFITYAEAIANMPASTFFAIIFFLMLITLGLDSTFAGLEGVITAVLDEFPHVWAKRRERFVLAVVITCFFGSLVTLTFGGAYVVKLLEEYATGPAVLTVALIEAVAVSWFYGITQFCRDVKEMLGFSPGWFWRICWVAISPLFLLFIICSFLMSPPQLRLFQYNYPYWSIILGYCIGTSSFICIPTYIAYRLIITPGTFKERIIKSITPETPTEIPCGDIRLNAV
Procedure: as §1, §2

hSERT E493N = target: T5, hSERT E493N (Homo sapiens, UniProt P31645, E493N); experiment: ASP^+ binding, hSERT E493N; details: S2 site mutant, read-out: SYR IC50 for Binding
T5 construct: forward and reverse primers were used to amplify a full-length hSERT; expressed in transfected cells; host or cells: HeLa cells, transient, pcDNA3.1
T5 sequence (P31645 whole entry E493N): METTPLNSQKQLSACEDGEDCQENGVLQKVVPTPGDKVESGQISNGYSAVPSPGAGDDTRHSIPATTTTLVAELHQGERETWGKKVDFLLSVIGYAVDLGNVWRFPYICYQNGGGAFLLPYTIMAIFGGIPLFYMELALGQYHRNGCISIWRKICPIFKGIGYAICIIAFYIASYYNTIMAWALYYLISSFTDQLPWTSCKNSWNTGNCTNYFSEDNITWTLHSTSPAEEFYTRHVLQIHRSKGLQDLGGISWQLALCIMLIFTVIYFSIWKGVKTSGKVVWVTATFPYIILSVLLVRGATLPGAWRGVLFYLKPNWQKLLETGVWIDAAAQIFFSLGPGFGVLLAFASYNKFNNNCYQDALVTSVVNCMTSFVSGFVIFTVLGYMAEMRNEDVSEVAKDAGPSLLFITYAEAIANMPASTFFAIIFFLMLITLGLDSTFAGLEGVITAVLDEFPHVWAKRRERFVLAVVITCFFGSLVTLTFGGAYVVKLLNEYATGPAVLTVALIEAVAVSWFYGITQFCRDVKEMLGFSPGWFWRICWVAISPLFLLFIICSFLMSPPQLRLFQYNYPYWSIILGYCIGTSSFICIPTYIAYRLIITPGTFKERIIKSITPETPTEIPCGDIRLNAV

[2] = tested on: hSERT Q111N, G498T, P561G, Q562N; experiment: ASP^+ binding, four S2 mutants compared with WT; set-up: species or system human; details: P561G, and Q562N
Procedure: as §1
ASP^+ binding to SERT expressed on the cell surface was measured with digitonin-permeabilized cells as described previously. The cells expressing WT or mutants of hSERT were incubated with 10 μM ASP^+ in the presence of 25 μg/mL digitonin at 22 °C for 5 min. After removing excess ASP^+ by 3× rapid washing, ASP^+ fluorescence retained in the cell membrane was determined by fluorescence spectrometry.
hSERT mutants were generated using the Mut Express II Fast Mutagenesis kit (Vazyme, Nanjing, China). Briefly, forward and reverse primers were used to amplify a full-length hSERT. The PCR products were then digested with restriction enzymes, excised from agarose gels, and ligated into pcDNA3.1. All mutations were confirmed by full-length DNA sequencing.

hSERT Q562N = target: T6, hSERT Q562N (Homo sapiens, UniProt P31645, Q562N); experiment: ASP^+ binding, hSERT Q562N; details: S2 site mutant, read-out: SYR IC50 for Binding
T6 construct: forward and reverse primers were used to amplify a full-length hSERT; expressed in transfected cells; host or cells: HeLa
T6 sequence (P31645 whole entry Q562N): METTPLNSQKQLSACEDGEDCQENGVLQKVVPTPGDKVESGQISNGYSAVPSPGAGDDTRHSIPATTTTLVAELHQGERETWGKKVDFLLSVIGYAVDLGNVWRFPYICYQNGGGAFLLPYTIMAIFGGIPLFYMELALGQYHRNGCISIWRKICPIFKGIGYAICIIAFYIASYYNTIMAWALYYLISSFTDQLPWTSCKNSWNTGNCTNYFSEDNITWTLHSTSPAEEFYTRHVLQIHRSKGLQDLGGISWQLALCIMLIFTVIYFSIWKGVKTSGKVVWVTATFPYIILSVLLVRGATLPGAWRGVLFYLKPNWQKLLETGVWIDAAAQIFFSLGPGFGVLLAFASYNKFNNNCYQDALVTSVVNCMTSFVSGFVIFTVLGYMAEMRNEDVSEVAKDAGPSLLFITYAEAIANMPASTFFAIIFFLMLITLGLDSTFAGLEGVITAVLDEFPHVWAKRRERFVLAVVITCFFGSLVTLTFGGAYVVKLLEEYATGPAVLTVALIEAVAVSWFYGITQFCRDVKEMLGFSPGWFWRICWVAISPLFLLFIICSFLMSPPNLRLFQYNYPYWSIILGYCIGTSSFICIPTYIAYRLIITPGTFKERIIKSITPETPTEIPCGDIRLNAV

hSERT G498T [3] = target: T2, hSERT G498T; experiment: ASP^+ binding, hSERT G498T; details: S2 site mutant, read-out: SYR IC50 for Binding
hSERT I172F = target: T7, hSERT I172F (Homo sapiens, UniProt P31645, I172F); experiment: APP^+ uptake, hSERT I172F; assay type: cell-based; details: S1 site mutant, read-out: SYR IC50 for Transport
T7 construct: forward and reverse primers were used to amplify a full-length hSERT; expressed in transfected cells; host or cells: HeLa
T7 sequence (P31645 whole entry I172F): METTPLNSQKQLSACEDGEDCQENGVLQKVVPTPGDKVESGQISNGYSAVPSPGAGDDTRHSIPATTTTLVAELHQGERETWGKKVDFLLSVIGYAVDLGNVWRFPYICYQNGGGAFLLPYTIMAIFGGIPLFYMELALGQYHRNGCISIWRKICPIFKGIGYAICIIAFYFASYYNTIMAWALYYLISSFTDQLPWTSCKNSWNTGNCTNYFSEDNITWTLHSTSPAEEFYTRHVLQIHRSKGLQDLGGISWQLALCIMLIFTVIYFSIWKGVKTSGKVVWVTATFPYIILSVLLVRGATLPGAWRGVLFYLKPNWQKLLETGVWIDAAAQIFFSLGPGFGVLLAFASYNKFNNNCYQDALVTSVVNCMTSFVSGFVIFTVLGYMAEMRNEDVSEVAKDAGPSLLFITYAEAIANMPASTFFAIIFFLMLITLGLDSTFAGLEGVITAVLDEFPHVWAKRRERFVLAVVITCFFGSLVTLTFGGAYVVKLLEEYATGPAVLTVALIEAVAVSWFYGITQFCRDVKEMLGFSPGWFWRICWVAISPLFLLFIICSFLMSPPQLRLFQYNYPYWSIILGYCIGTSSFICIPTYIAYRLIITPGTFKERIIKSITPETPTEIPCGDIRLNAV
Procedure: as §1, §2

hSERT S559A = target: T8, hSERT S559A (Homo sapiens, UniProt P31645, S559A); experiment: ASP^+ binding, hSERT S559A; details: S2 site mutant, read-out: SYR IC50 for Binding
T8 construct: forward and reverse primers were used to amplify a full-length hSERT; expressed in transfected cells; host or cells: HeLa cells, transient, pcDNA3.1
T8 sequence (P31645 whole entry S559A): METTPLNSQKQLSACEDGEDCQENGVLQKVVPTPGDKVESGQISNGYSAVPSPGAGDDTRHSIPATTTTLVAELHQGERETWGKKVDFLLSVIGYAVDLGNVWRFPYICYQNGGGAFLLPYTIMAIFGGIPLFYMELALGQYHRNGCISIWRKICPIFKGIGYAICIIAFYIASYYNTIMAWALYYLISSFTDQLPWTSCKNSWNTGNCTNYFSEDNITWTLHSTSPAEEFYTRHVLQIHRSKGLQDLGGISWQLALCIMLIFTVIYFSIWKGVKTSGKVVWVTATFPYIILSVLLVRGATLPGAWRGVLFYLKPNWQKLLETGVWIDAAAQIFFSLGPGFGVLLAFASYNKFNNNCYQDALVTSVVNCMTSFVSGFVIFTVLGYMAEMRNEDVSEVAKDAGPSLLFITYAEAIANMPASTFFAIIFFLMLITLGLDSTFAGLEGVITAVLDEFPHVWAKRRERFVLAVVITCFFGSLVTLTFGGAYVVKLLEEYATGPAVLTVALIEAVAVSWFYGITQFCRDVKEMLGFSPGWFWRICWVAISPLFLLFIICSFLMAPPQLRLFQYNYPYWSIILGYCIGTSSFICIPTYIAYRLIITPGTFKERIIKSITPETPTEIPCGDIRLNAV

CUMS mice = experiment: Tail suspension test (TST) in CUMS mice; assay type: in vivo, mouse
Procedure: C57BL/6 adult (6–8 weeks, body weight, 18–22 g) male mice were maintained and handled in a standard condition at the Experimental Animal Center of Southern Medical University (Guangzhou, China). Animal use was approved by the Animal Use and Care Committee of Southern Medical University (approved code: SMUL2021177, approved date: 12 December 2021). The CUMS procedure was carried out according to a protocol described previously. Except for those in the control group, mice were randomly exposed to two mild unpredictable stressors per day for 3 weeks. The stressors included water deprivation, restraint, tilted cage, wet/no bedding, rotation, peppermint, noise, and inverted light off/on. Mice in the control group were group housed without any stressors throughout the procedure. […] NSFT was performed after 16 h food deprivation, as described previously. The mouse was placed in an open field (24 × 40 × 14 cm), where a new chow was put in the center, and the latency time to bite food was counted over 10 min. Home cage feeding within a 20 min period was measured after the test. FST was carried out according to a protocol described previously. The mouse was placed into a beaker (Bomex, Beijing, China) with a height of 18 cm filled with water (22 ± 1 °C) for 6 min. The immobile time was measured during minutes 2–6. TST was performed according to a previous description. The mouse was suspended from a hook that hung from a suspension bar by placing a piece of adhesive tape on its tail about 1 cm away from the tip. The immobile time during minutes 2–6 was measured.

In the case of COc1cc([C@@H]2OC[C@@H]3[C@H]2CO[C@H]3c2cc(OC)c(O)c(OC)c2)cc(OC)c1O [SYR, (-)-syringaresinol], the “increase of SYR IC50 for APP^+ uptake or ASP^+ binding compared with WT” value (hSERT S2 mutants) is reported as “more than 10 fold”, the IC50 (hSERT R564A) is reported as 30.4 ± 1.42 µM and the IC50 (hSERT G498T [1]) is reported as 40.5 ± 0.54 µM. The IC50 (hSERT S438T) was 910 ± 20 nM, the IC50 (hSERT Y95F) was 2640 ± 120 nM and the IC50 (hSERT E493N) was 13.5 ± 1.3 µM. For the same compound, the “SYR IC50 for ASP^+ binding relative to WT” value [2] was ≥ 100 fold, the IC50 (hSERT Q562N) was 99.9 ± 2.04 µM and the IC50 (hSERT G498T [3]) was 91 ± 6.29 µM. The IC50 (hSERT I172F) was 2220 ± 40 nM, the IC50 (hSERT S559A) was 36.8 ± 2.49 µM and the “CUMS-induced increase in immobility time in TST” value (CUMS mice; 5 mg/kg, i.p., once per day day 7 to 21) was “effectively attenuate”. For the same compound, the “effect in TST” value (CUMS mice; 10 or 20 mg/kg (i.p.)) was “remarkable antidepressant-like effects”.
